ChEMBL document CHEMBL1201862, “PubChem BioAssay data set” (2004)
The source made the active and inactive calls. For most assays here, no stated cut-off is given here; in the data, actives have a measured EC50 and inactives only a lower limit.

Assays:
[1] = molecular target: T1, Replicative DNA helicase DnaB (Mycobacterium tuberculosis, UniProt P9WMR3); test: DnaB intein splicing inhibitors, dose response, biochemical, cell-free fluorescence (AID 449749); type: functional
T1 sequence (P9WMR3 whole entry): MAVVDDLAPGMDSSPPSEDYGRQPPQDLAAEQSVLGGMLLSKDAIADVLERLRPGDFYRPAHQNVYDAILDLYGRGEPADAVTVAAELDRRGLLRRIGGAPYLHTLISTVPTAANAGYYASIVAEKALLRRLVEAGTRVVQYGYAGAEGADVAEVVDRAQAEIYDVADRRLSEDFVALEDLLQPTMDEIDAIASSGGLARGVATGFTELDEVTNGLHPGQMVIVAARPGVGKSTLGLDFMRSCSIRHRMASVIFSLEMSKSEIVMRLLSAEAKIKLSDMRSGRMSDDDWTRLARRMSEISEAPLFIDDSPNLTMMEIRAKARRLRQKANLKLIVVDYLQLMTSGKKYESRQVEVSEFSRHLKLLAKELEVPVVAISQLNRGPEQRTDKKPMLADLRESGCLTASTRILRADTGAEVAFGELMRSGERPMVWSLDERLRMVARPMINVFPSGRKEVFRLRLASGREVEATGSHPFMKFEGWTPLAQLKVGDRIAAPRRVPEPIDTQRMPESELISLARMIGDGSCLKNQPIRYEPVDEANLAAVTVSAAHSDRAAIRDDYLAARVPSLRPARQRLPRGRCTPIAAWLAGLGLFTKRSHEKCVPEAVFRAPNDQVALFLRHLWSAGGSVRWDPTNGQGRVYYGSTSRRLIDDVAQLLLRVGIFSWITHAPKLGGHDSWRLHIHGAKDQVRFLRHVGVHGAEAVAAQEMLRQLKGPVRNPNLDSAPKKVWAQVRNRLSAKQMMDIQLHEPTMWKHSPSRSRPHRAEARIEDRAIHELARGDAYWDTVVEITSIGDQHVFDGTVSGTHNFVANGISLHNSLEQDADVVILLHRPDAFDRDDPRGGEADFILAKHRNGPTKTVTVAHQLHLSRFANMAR

Protein RecA = molecular target: T2, Protein RecA (Mycobacterium tuberculosis, UniProt P9WHJ3); test: Fluorescence Cell-Free Homogeneous Dose Retest to Identify Inhibitors of RecA-Intein Splicing Activity. [Related pubchem assays (depositor defined):AID2097, AID2223, AID489010, AID492950]; type: functional
T2 sequence (P9WHJ3 whole entry): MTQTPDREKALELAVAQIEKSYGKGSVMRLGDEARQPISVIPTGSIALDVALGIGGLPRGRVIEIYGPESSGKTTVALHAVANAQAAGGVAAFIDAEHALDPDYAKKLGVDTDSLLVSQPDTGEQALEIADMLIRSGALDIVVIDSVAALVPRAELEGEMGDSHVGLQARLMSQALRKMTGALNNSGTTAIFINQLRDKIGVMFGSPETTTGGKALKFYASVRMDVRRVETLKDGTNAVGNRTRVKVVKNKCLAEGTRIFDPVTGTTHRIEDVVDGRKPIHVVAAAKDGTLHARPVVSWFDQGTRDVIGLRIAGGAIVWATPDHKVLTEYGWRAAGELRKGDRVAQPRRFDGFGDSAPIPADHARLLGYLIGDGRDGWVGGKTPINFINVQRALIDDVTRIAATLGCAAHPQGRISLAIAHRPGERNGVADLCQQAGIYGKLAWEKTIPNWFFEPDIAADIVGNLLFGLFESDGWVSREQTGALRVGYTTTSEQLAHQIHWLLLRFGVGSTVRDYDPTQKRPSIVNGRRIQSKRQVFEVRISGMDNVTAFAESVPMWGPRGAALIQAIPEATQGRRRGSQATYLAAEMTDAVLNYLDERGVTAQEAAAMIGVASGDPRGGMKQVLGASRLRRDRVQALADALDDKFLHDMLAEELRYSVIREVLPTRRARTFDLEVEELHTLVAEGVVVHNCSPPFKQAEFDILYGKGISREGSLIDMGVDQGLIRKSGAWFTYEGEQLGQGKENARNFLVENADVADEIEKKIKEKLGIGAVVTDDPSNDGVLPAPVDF

[2] = molecular target: T3, Heat shock factor protein 1 (Mus musculus, UniProt P38532); test: HSF1 potentiators in luciferase reporter cells, confirmation, cell-based, NIH3T3, luminescence, dose retest (AID 435004); type: functional;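 further: stress induced by proteasome inhibitor MG132 added 30 min after compound; luciferase reporter driven by HSF1 response element in NIH3T3 cells; actives raise luminescence as potentiators of the MG132 stress response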
T3 sequence (P38532 whole entry): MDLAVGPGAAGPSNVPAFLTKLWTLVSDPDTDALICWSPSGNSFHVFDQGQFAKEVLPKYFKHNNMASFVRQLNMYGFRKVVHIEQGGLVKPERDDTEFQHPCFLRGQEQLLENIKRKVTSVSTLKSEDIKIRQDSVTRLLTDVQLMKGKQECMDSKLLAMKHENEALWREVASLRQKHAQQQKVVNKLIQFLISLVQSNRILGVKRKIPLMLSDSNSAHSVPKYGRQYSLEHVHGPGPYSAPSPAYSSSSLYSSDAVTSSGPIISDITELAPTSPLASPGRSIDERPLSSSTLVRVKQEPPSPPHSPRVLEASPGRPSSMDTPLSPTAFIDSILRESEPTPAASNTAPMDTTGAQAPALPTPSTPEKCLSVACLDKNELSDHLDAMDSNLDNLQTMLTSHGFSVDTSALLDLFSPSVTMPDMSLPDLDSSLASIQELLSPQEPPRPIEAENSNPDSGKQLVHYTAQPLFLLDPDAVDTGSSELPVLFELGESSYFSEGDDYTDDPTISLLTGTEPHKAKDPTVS

[3] = Luminescence Cell-Based Dose Response HTS to Identify Inhibitors of 5'UTR Stem-Loop Driven Prion Protein mRNA Translation in H4 Neuroglioblastoma Cells. [Related pubchem assays: 1827 (Project Summary), 1813 (Primary HTS)]; type: functional
[4] = inhibitors of firefly luciferase expression or activity, dose response, H4 neuroglioma cells, luminescence (AID 1990); type: functional, cell-based
[5] = inhibitors of SNCA 5'UTR-driven reporter translation, confirmation, H4 neuroglioma cells, luminescence (AID 1988); type: functional, cell-based
H4 = test: Luminescence Cell-Based Dose Response HTS to Identify Activators of 5'UTR Stem-Loop Driven Prion Protein mRNA Translation in H4 Neuroglioblastoma Cells. [Related pubchem assays: 1829 (Project Summary), 1814 (Primary HTS)]; type: functional; conditions: Homo sapiens
[6] = Luminescence Cell-Based Dose Response HTS to Identify Activators of Luciferase Translation or Activity in H4 […] Cells. [Related pubchem assays: 1829 (Project Summary), 1814 (Primary HTS)]; type: functional
[7] = Luminescence Cell-Based Dose Confirmation HTS to Identify Activators of 5'UTR Stem-Loop Driven Alpha-Synuclein mRNA Translation in H4 Neuroglioblastoma Cells. [Related pubchem assays: 1829 (Project Summary), 1814 (Primary HTS)]; type: functional
[8] = growth suppression of PTEN-null colon cells, dose response, cell-based, HCT116 PTEN knockout (AID 1047); type: functional;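 further: HCT116 colon tumor cells with PTEN knocked out; cells exposed to compound for 60 hours before readout; potency for loss of cell viability measured by luminescence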
[9] = inhibitors of intracellular T. cruzi replication, confirmation, NIH3T3 host cells, beta-gal luminescence (AID 2044); type: functional, cell-based;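 further: intracellular parasites grown in NIH/3T3 mouse fibroblasts as host cells; luminescent beta-galactosidase reporter signal from transgenic T. cruzi replicating inside host cells; inhibitors lower the luminescence signal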
[10] = Luminescence Cell-Based Dose Retest to Confirm Inhibitors of Cancer Stem Cells. [Related pubchem assays (depositor defined):AID2717, AID2721]; type: functional; conditions: Homo sapiens
[11] = growth suppression of beta-catenin-knockout colon cells, dose response, cell-based, HCT116, human colon tumor (AID 1045); type: functional;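 further: HCT116 colon tumor cells with beta catenin knocked out; cells exposed to compound for 60 hours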
[12] = cytotoxicity toward NIH3T3 fibroblasts, dose response, counter-screen, cell-based, ATP luminescence, mouse fibroblasts (AID 2010); type: functional;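 further: cells exposed to compound for about 90 hours before reading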
Streptokinase A = molecular target: T4, Streptokinase A (Streptococcus pyogenes serotype M1, UniProt P10520); test: S. pyogenes streptokinase expression inhibitors, potency, dose response, plasminogen activation absorbance, OD405 (AID 1914); type: functional, Streptococcus pyogenes M1 GAS;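 further: secreted streptokinase activity via plasminogen activation per viability signal from cell pellet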
T4 sequence (P10520 whole entry): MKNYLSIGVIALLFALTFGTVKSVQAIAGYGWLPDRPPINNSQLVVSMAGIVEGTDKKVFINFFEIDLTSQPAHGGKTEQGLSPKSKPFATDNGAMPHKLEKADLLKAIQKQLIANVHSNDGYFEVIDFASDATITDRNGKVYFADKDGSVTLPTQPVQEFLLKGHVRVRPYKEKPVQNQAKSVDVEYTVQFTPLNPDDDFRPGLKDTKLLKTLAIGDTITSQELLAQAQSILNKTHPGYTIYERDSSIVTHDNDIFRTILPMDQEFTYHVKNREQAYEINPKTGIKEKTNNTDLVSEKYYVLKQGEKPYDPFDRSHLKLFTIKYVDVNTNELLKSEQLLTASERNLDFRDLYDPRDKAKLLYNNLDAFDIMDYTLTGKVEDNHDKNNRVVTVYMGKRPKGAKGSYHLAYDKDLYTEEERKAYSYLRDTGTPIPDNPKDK

Streptococcus = test: Group A Streptococcus viability loss, dose response, counter-screen for streptokinase expression inhibitor project, luminescence, BacTiterGlo (AID 1915); type: functional, organism-based;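 further: potency for reduction of bacterial viability or growth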
[13] = tested on: Streptococcus sp. 'group A'; test: growth inhibition of control SK(-) GAS strain, dose response, counter-screen for streptokinase expression inhibitor project, luminescence, kanamycin, BacTiterGlo, confirmation (AID 1900); type: functional, organism-based

## Cc1cccc(C(=O)NC2C(=O)NNC2c2ccc(Cl)cc2)c1 (stereo unspecified)
[1]
  AC50: 18.7 µM (active)
Protein RecA
  EC50: 18.9 µM (active)

## CCC(C)(C)n1nnnc1C(c1cc2cc(C)cc(C)c2nc1O)N1CCN(Cc2ccc3c(c2)OCO3)CC1 (stereo unspecified)
[2]
  EC50: > 260 µM (inactive)

## Cc1n[nH]c(O)c1/C=N/Cc1cccs1
[2]
  EC50: > 260 µM (inactive)

## Cc1ccc(S(=O)(=O)N2CCOC23CCN(C(=O)c2ccc(Cl)cc2Cl)CC3)cc1
[3]
  EC50: 17.7 µM (active)
[4]
  EC50: > 120 µM (not active)
[5]
  EC50: 13.8 µM (active)

## Cc1cc(-c2nnc(-c3cccc(Cl)c3)o2)no1
H4
  EC50: 119 µM (active)
[6]
  EC50: 0.318 µM (active)
[7]
  EC50: 0.132 µM (active)

## COc1ccc(NC(=O)COc2cccc3c2CCN(Cc2cccnc2)C3=O)c(OC)c1
[2]
  EC50: > 260 µM (inactive)

## COc1ccc2oc(=O)c(-c3nnc(NCc4ccco4)s3)cc2c1
H4
  EC50: 1.91 µM (active)
[6]
  EC50: 78.7 µM (active)
[7]
  EC50: 23.1 µM (active)

## Cc1cccc2cc3c(nc12)S/C(=N/CC1CCCO1)N(Cc1ccco1)C3 (stereo unspecified)
[2]
  EC50: 44.6 µM (active)

## COC(=O)c1nnn(CC(=O)NC(=O)Nc2ccc(F)cc2)c1C(=O)OC
[2]
  EC50: > 260 µM (inactive)

## CC1CCc2c(c3ccccc3n2C(=O)CCl)C1 (stereo unspecified)
[1]
  AC50: > 380 µM (inactive)
Protein RecA
  EC50: 0.751 µM (active)

## O=C(Cc1c(O)c2ccccc2[nH]c1=O)NCc1ccccc1
[2]
  EC50: > 260 µM (inactive)

## CCOc1ccc(NC(c2ccccn2)c2oc(CO)cc(=O)c2O)cc1 (stereo unspecified)
H4
  EC50: 22.2 µM (active)
[6]
  EC50: 0.175 µM (active)

## COc1ccc(F)cc1CN1CCN(c2ncnc3scc(-c4ccccc4)c23)CC1
[3]
  EC50: 23.9 µM (active)
[4]
  EC50: 15.8 µM (active)
[5]
  EC50: 15.6 µM (active)

## Cc1ccccc1Nc1c(-c2ccc(N3CCOCC3)cc2)nc2cnccn12
H4
  EC50: 16.6 µM (active)
[6]
  EC50: 19.2 µM (active)
[7]
  EC50: 15 µM (active)

## CC(C)(C)c1ccc(/C=C/C(=O)c2ccc(NC3=NCCCS3)cc2)cc1
[8]
  EC50: 6.9 µM (active)
[9]
  EC50: 2.08 µM (active)
[10]
  AC50: 2.63 µM (active)
[11]
  EC50: 4.92 µM (active)
[12]
  EC50: > 60 µM (not active)

## CC(C)(C)OC(=O)N1CC=C2C(C#N)=C(N)C(C#N)(C#N)C(c3cccs3)C2C1 (stereo unspecified)
[1]
  AC50: > 380 µM (inactive)
Protein RecA
  EC50: 5.1 µM (active)

## O=S(=O)(Nc1ccc(-n2cnnn2)cc1)c1ccc(F)c(F)c1F
[1]
  AC50: > 380 µM (inactive)
Protein RecA
  EC50: > 380 µM (inactive)

## CCCOc1ccc(-c2c(=O)n(O)c3ccccc3[n+]2[O-])cc1
H4
  EC50: 97.6 µM (active)
[6]
  EC50: 11.6 µM (active)
[7]
  EC50: 10.1 µM (active)

## C[C@@H]1OC(Nc2ccc(N=Nc3ccccc3)cc2)[C@H](O)[C@H](O)[C@H]1O (stereo partly specified)
H4
  EC50: 11.1 µM (active)
[6]
  EC50: 54.8 µM (active)
[7]
  EC50: 16.9 µM (active)

## Cn1c(C(=O)NCCCN2CCN(c3ccccc3F)CC2)cc2c(=O)n(C)c3ccccc3c21
[8]
  EC50: 17.2 µM (active)
[11]
  EC50: 17.7 µM (active)

## CCOc1cc(NC(=O)c2ccccc2C)c(OCC)cc1NC(=O)C1=Cc2ccccc2OC1
[3]
  EC50: 18.7 µM (active)
[4]
  EC50: > 120 µM (not active)
[5]
  EC50: 9.61 µM (active)

## Clc1ccc(CN(Cc2ccccc2)C(c2cccs2)c2nnnn2C2CCCC2)cc1 (stereo unspecified)
[8]
  EC50: 53.2 µM (active)
[11]
  EC50: 32.8 µM (active)

## CN1C(=O)S/C(=C\c2ccc(-n3cncn3)cc2)C1=O
H4
  EC50: > 120 µM (not active)
[6]
  EC50: 32.4 µM (active)
[7]
  EC50: 59.6 µM (active)

## CC(C)Nc1nc(N=C(N)S)nc(NC(C)C)n1
[3]
  EC50: > 120 µM (not active)
[4]
  EC50: > 120 µM (not active)
[5]
  EC50: > 120 µM (not active)

## COc1ccccc1C(=O)Nc1nnc(C)s1
H4
  EC50: 26.3 µM (active)
[6]
  EC50: 4.92 µM (active)
[7]
  EC50: 0.108 µM (active)

## COc1cc(C2C(C#N)=C(N)Oc3[nH]nc(C)c32)ccc1OC(=O)c1ccccc1 (stereo unspecified)
[1]
  AC50: 20.3 µM (active)
Protein RecA
  EC50: 17.3 µM (active)

## Cc1ccc2[nH]c(SCC3CCCCO3)nc2c1 (stereo unspecified)
[3]
  EC50: > 60 µM (inconclusive)

## CCCCCC(=O)Cc1cc(O)cc2c1C(=O)Oc1cc(O)c(C(=O)O)c(CCCCC)c1O2 [PHYSODIC ACID]
[1]
  AC50: 2.05 µM (active)
Streptokinase A
  EC50: 15.9 µM (active)
Streptococcus
  EC50: > 150 µM (not active)
Protein RecA
  EC50: 3.23 µM (active)
[13]
  EC50: 2.36 µM (active)
